Data set [1] has as its system Glomerella lagenarium; Anamorph: Colletotrichum lagenarium. Nature of the data set: Cucumber Anthracnose fungicidal activity (COLLLA). The settings on record: Colletotrichum orbiculare, 24 h, 1 Day Protectant, read-out: Disease Control COLLLA 1DP. The class given is in vivo. How it is done:
Technical grades of materials were dissolved in acetone, which were then mixed with nine volumes of water containing 110 ppm Triton X-100. The fungicide solutions were applied onto wheat seedlings using an automated booth sprayer to run-off. All sprayed plants were allowed to air dry prior to further handling. All fungicides were evaluated using the aforementioned method for their activity vs. all target diseases. Wheat leaf blotch and brown rust activity were also evaluated using track spray applications, in which case the fungicides were formulated as EC formulations, containing 0.1% Trycol 5941 in the spray solutions. Wheat plants (variety Yuma) were grown from seed in a greenhouse in 50% mineral soil/50% soil-less Metro mix until the first leaf was fully emerged, with 7-10 seedlings per pot. These plants were inoculated with an aqueous spore suspension of Septoria tritici either prior to or after fungicide treatments. After inoculation the plants were kept in 100% relative humidity (one day in a dark dew chamber followed by two to three days in a lighted dew chamber at 20° C.) to permit spores to germinate and infect the leaf. The plants were then transferred to a greenhouse set at 20° C. for disease to develop. When disease symptoms were fully expressed on the 1st leaves of untreated plants, infection levels were assessed on a scale of 0 to 100 percent disease severity. Percent disease control was calculated using the ratio of disease severity on treated plants relative to untreated plants. Evaluation of Fungicidal Activity: Cucumber Anthracnose (Glomerella lagenarium; Anamorph: Colletotrichum lagenarium; Bayer Code COLLLA) Cucumber seedlings (variety Bush Pickle) were propagated in soil-less Metro mix, with each pot having one plant, and used in the test when 12 to 14 days old. Test plants were inoculated with an aqueous spore suspension of Colletotrichum lagenarium 24 hr after fungicide treatments. After inoculation the plants were kept in a dew room at 22° C. with 100% relative humidity for 48 hr to permit spores to germinate and infect the leaf. The plants were then transferred to a growth room set at 22° C. for disease to develop. Fungicide formulation, application and disease assessment on the sprayed leaves followed the procedures as described in the Example A.

The test system of data set [2] is Blumeria graminis f. sp. tritici. As to the kind of experiment: Wheat Powdery Mildew fungicidal activity (ERYSGT). The class given is in vivo. The settings on record: 100 ppm, 1 Day Protectant. The protocol: Technical grades of materials were dissolved in acetone, which were then mixed with nine volumes of water containing 110 ppm Triton X-100. The fungicide solutions were applied onto wheat seedlings using an automated booth sprayer to run-off. All sprayed plants were allowed to air dry prior to further handling. All fungicides were evaluated using the aforementioned method for their activity vs. all target diseases. Wheat leaf blotch and brown rust activity were also evaluated using track spray applications, in which case the fungicides were formulated as EC formulations, containing 0.1% Trycol 5941 in the spray solutions. Wheat plants (variety Yuma) were grown from seed in a greenhouse in 50% mineral soil/50% soil-less Metro mix until the first leaf was fully emerged, with 7-10 seedlings per pot. These plants were inoculated with an aqueous spore suspension of Septoria tritici either prior to or after fungicide treatments. After inoculation the plants were kept in 100% relative humidity (one day in a dark dew chamber followed by two to three days in a lighted dew chamber at 20° C.) to permit spores to germinate and infect the leaf. The plants were then transferred to a greenhouse set at 20° C. for disease to develop. When disease symptoms were fully expressed on the 1st leaves of untreated plants, infection levels were assessed on a scale of 0 to 100 percent disease severity. Percent disease control was calculated using the ratio of disease severity on treated plants relative to untreated plants. Evaluation of Fungicidal Activity: Wheat Powdery Mildew (Blumeria graminis f. sp. tritici; Synonym: Erysiphe graminis f. sp. tritici; Bayer Code […]) Wheat plants (variety Yuma) were grown from seed in a greenhouse in 50% mineral soil/50% soil-less Metro mix until the first leaf was fully emerged, with 7-10 seedlings per pot. These plants were inoculated by dusting with infected stock plants 24 hr after fungicide treatments. After inoculation the plants were kept in a greenhouse set at 20° C. for disease to develop. […]

In the next data set the test system is Phakopsora pachyrhizi. As to the kind of experiment: Asian Soybean Rust fungicidal activity (PHAKPA). The class given is in vivo. To be noted: 25 ppm; for Disease Control PHAKPA 1DP: 1 Day Protectant; for Disease Control PHAKPA 3DC: 3 Day Curative. The protocol:
Evaluation of Fungicidal Activity: Asian Soybean Rust (Phakopsora pachyrhizi; Bayer Code PHAKPA)
Technical grades of materials were dissolved in acetone, which were then mixed with nine volumes of water containing 0.011% Tween 20. The fungicide solutions were applied onto soybean seedlings using an automated booth sprayer to run-off. All sprayed plants were allowed to air dry prior to further handling.
Soybean plants (variety Williams 82) were grown in soil-less Metro mix, with one plant per pot. Two weeks old seedlings were used for testing. Plants were inoculated either 3 days prior to or 1 day after fungicide treatments. Plants were incubated for 24 h in a dark dew room at 22° C. and 100% RH then transferred to a growth room at 23° C. for disease to develop. Disease severity was assessed on the sprayed leaves.

Here are results for 13 compounds from patent US9179674B2, “Macrocyclic picolinamide compounds with fungicidal activity” (DOW AGROSCIENCES LLC, priority 2013, dated 2015).

Molecules are shown by their SMILES.

For the compound `COc1ccnc(C(=O)N[C@H]2COC[C@H](CC(F)(F)F)[C@@H](OC3CCCC3)[C@H](C)OC2=O)c1OCOC(C)=O` [Compound F105], the pest or weed control at 100 ppm in data set [1] was in the range of 80 to 100%.

On to `COc1ccnc(C(=O)N[C@H]2COC[C@H](CCc3ccccc3)[C@@H](OCC(C)C)[C@H](C)OC2=O)c1OCOC(C)=O` [Compound F82], for which the pest or weed control at 100 ppm in data set [1] fell in the range of 80 to 100%.

As to `COc1ccnc(C(=O)N[C@H]2COC[C@H](Cc3ccc(C)cc3)[C@@H](OCC(C)C)[C@H](C)OC2=O)c1OCOC(C)=O` [Compound F117], in data set [1], the pest or weed control at 100 ppm fell in the range of 80 to 100%. For the same compound, in data set [2], the “Disease Control ERYSGT 1DP” value is “A (80-100)”.

With `COc1ccnc(C(=O)N[C@H]2COC[C@H](Cc3ccc(Cl)cc3Cl)[C@@H](OC(=O)C(C)C)[C@H](C)OC2=O)c1OC(C)=O` [Compound F73], the melting point lay within 93 to 97 °C. In data set [1], the pest or weed control at 100 ppm lay within 80 to 100%.

Consider `COc1ccnc(C(=O)N[C@H]2COC[C@H](CC3CCCC3)[C@@H](OC(=O)C(C)C)[C@H](C)OC2=O)c1OCOC(C)=O` [Compound F114], for which the melting point was in the range of 41 to 45 °C. In addition, in the data set on Phakopsora pachyrhizi, the “Disease Control PHAKPA 1DP” value is listed as “A (80-100)” and the “Disease Control PHAKPA 3DC” value is on record as “B (More than 0-Less than 80)”. Moreover, in data set [1], the pest or weed control at 100 ppm was 80 to 100%.

With `COc1ccnc(C(=O)N[C@H]2COC[C@H](Cc3ccc(C)cc3)[C@@H](OCC(C)C)[C@H](C)OC2=O)c1OC(C)=O` [Compound F80], in data set [1], the pest or weed control at 100 ppm fell in the range of 80 to 100%. Besides, in data set [2], the “Disease Control ERYSGT 1DP” value is “A (80-100)”.

As for `COc1ccnc(C(=O)N[C@H]2COC[C@H](Cc3ccc(Cl)cc3Cl)[C@@H](OC(=O)C(C)C)[C@H](C)OC2=O)c1OCOC(C)=O` [Compound F110], the melting point was 62 to 66 °C. Besides, the pest or weed control at 100 ppm in data set [1] lay within 80 to 100%.

For `COc1ccnc(C(=O)N[C@H]2COC[C@H](Cc3ccc(F)cc3)[C@@H](OCC(C)C)[C@H](C)OC2=O)c1OCOC(C)=O` [Compound F96], the pest or weed control at 100 ppm in data set [1] was 80 to 100%. For the same compound, the “Disease Control ERYSGT 1DP” value in data set [2] is listed as “A (80-100)”.

On to `COc1ccnc(C(=O)N[C@H]2COC[C@H](CCC(C)C)[C@@H](OCCCC(F)(F)F)[C@H](C)OC2=O)c1OCOC(C)=O` [Compound F107], for which, in the data set with Phakopsora pachyrhizi, the “Disease Control PHAKPA 1DP” value is “A (80-100)” and the “Disease Control PHAKPA 3DC” value is “B (More than 0-Less than 80)”.

`CCCCCO[C@@H]1[C@@H](Cc2ccc(Cl)cc2Cl)COC[C@H](NC(=O)c2nccc(OC)c2OCOC(=O)COCC)C(=O)O[C@H]1C` [Compound F122]: the “Disease Control PHAKPA 1DP” value in the data set with Phakopsora pachyrhizi is given as “B (More than 0-Less than 80)”. In data set [1], the pest or weed control at 100 ppm lay within 80 to 100%.

Take `CCCCCO[C@@H]1[C@@H](Cc2ccc(Cl)cc2Cl)COC[C@H](NC(=O)c2nccc(OC)c2OC(=O)CCOC)C(=O)O[C@H]1C` [Compound F123]: the melting point lay in the range of 96 to 99 °C. Further, the “Disease Control PHAKPA 1DP” value with Phakopsora pachyrhizi is “B (More than 0-Less than 80)”. The pest or weed control at 100 ppm in data set [1] is 80 to 100%.

Consider `COc1ccnc(C(=O)N[C@H]2COC[C@H](CCC(C)C)[C@@H](OC(=O)C3CC3)[C@H](C)OC2=O)c1OCOC(C)=O` [Compound F108], for which, in the data set with Phakopsora pachyrhizi, the “Disease Control PHAKPA 1DP” value is recorded as “A (80-100)” and the “Disease Control PHAKPA 3DC” value is “A (80-100)”.

`COc1ccnc(C(=O)N[C@H]2COC[C@H](Cc3cccc4ccccc34)[C@@H](OC(=O)C(C)C)[C@H](C)OC2=O)c1OCOC(C)=O` [Compound F83, (3S,6S,7R,8S)-3-(3-(acetoxymethoxy)-4-methoxypicolin-amido)-6-methyl-8-(naphthalen-1-ylmethyl)-4-oxo-1,5-dioxonan-7-yl isobutyrate] yielded a melting point of 58 to 64 °C. Besides, the pest or weed control at 100 ppm in data set [1] was 80 to 100%.

The term melting point denotes the temperature of the solid-liquid transition.
